Experiments:
Type in all cases: in vivo, C57BL/6N mice
[1] = tested on: genes involved in BCAA catabolism; assay: BCAA catabolism gene expression (microarray, RT-PCR) in hearts of TAC mice; conditions: 12.5 mg/kg/day ip
Description: (§1) Twelve weeks C57BL/6N old mice were anesthetised with ketamine/xylazine (100 mg/kg and 10 mg/kg, respectively) and mechanically ventilated (SAR-830/AP, CWE). The transverse aortic arch was ligated by tying a 6-0 silk suture around the aorta and a 27G needle to yield a partial and reproducible constriction when the needle was removed. In sham animals, the aortic arch was visualized but not banded. Thorax was closed and analgesia was administrated (buprenorphine at 0.1 mg/kg every 12 hours until 48 hours). Mice were euthanized by lethal intraperitoneal dose of sodium pentobarbital (100 mg/kg) (Cat. No. 4579, Tocris).
(§2) The LAT1 inhibitor JPH203 (Cat. No. S8667) was intraperitoneally (ip) and chronically administered, starting the following day after TAC surgery.
(§3) Mice were randomly distributed to receive JPH203 at 12.5 mg/kg/day (prepared at 2 mg/ml of 40% 2-hydroxipropil-beta-cyclodextrin in saline). Sham and control groups received JPH203 vehicle (40% 2-hydroxipropil-beta-cyclodextrin in saline). Mice were euthanized 2 or 5 weeks after surgery.
Total RNA was extracted from heart samples using the NZY Total RNA Isolation kit (Cat. No. MB13402, NZY Tech) following the manufacturer's protocol.
RNA was reverse transcribed into cDNA using a High-Capacity cDNA Reverse Transcription kit (Cat. No. 4368814, Applied Biosystems) following manufacturer's instructions. The thermal cycler (Bio-Rad) was programmed to run a single cycle of 25 °C for 10 min, 37 °C for 120 min, 85 °C for 5 min and kept at 4 °C until use.
For determination of differential gene expression, RNA was isolated, as previously described, from mice myocardial samples and its quality was analysed by capillary electrophoresis (Bioanalyzer 2100, Agilent) and amplified using the WT Plus Reagent Kit-HT (Applied Biosystems, Thermo Fisher Scientific). Microarray service was done by the Molecular Diagnosis and Genomic platforms of the High Technology Unit (VHIR) using Clariom S type arrays specific for mouse transcriptome (plate format) (Applied Biosystems). […]

heart hypertrophy = assay: Cardiac hypertrophy in Transverse Aortic Constriction (TAC) mouse model; conditions: 12.5 mg/kg/day ip, vs control group
Description: as §1, §2, §3
(§4) Mice underwent transthoracic echocardiography at baseline (before surgery) and at 1, 2 and 5 weeks after surgery. Echocardiography was performed using a Prospect T1 Preclinical High Frequency Ultrasound System with a PB406e Probe 40MHz transducer (S-Sharp) applied to the shaved chest wall of mice anesthetized with isoflurane. The ejection fraction (EF), the left ventricular end-systolic (LVESd) and diastolic (LVEDd) internal diameters, left ventricular anterior wall (LVAW) thickness and left ventricular posterior wall (LVPW) thickness were measured in M-mode recordings.
Hypertrophy was calculated as heart weight-to-tibia length ratio. Echocardiographic parameters like IVS and LVPW thicknesses, as well as BNP and Myh7 mRNA levels, are the common parameters used to define myocardial hypertrophy.

[2] = tested on: heart failure induced by aortic stenosis; assay: Ventricular dilatation, cardiac function (echocardiography) and pulmonary oedema in TAC mouse model; conditions: after 5 weeks of TAC surgery, 12.5 mg/kg/day ip, vs control group
Description: as §1, §2, §3, §4

myocardial BCAA content = assay: LC-MS/MS of BCAA and leucine metabolites in heart extracts of TAC mice
Description: as §1, §2, §3
After 5 hours of fasting, mice were injected with an intraperitoneal dose of L-Leucine-^13C6, ^15N (Cat. No. 608068, Sigma-Aldrich) at 0.1 mg/g 30 minutes before euthanizing with a lethal injection of sodium pentobarbital resuspended in saline and injected at 100 mg/kg (Cat. No. 4579, Tocris).
The levels of Branched-Chain Amino Acids (BCAA) and their main metabolites in biological samples will be determined by Liquid Chromatography tandem Mass Spectrometry (LC-MS/MS). Briefly, the determination of amino acids (BCAA but also amino acids involved in glutaminolysis) was performed by using a hydrophilic interaction chromatography (HILIC) with an amide column. After addition of the adequate internal standard (containing labelled analogues), protein precipitation with organic solvents and centrifugation, the supernatant was injected into the LC-MS/MS system operating in a Selected Reaction Monitoring (SRM) method by acquiring two transitions for each compound. The determination of α-ketoacids, α-hydroxy acids and SCFA (including the main BCAA metabolites and other compounds related with glutaminolysis) was performed by oBHA derivatization. The internal standard (containing labelled analogues) was added into the sample and the mixture was derivatized by adding a derivatizing mixture consisting in oBHA:EDC (1:1) in pyridine. After reaction for 1 h at room temperature, 1 mL of milliQ water and 4 mL of ethyl acetate was added to perform a liquid-liquid extraction. […] Quantification was performed by means of external calibration using authentic referent material. […] Several quality control samples (QCs) were analysed with every analytical batch with the aim of checking the inter-batch robustness of the results. […]

interstitial collagen = assay: Cardiac fibrosis in Transverse Aortic Constriction (TAC) mouse model; conditions: 12.5 mg/kg/day ip
Description: as §1, §2, §3
Hearts were fixed in buffered 4% paraformaldehyde and embedded in paraffin for histological evaluation. The amount of interstitial collagen deposition was determined in 4 µm transverse sections at the papillary muscles level stained with Picrosirius red (Sigma-Aldrich). At least ten random photomicrographs per animal were taken with the Leica DM IRBE Inverted Fluorescence Microscope at x200 magnification. The analysis was performed using Image J 1.50 Software. Interstitial fibrosis was expressed as the percentage of fibrotic area with respect to total area under quantification, perivascular fibrosis was manually excluded from the analysis.

[3] = 13C,15N-leucine ip 30 minutes before heart extraction, 2 weeks of TAC, 12.5 mg/kg/day ip

SMILES: Nc1cc(COc2c(Cl)cc(C[C@H](N)C(=O)O)cc2Cl)c2oc(-c3ccccc3)nc2c1 [JPH203, O-[(5-amino-2-phenyl-1,3-benzoxazol-7-yl)methyl]-3,5-dichloro-L-tyrosine]
- reduction in the expression of PP1MK ([1]; RT-PCR, hearts, vs control hearts, P=0.013): significantly attenuated
- reduction in the expression of BCKDHB ([1]; RT-PCR, hearts, vs control hearts, P=0.015): significantly attenuated
- downregulation of genes involved in BCAA catabolism induced by TAC surgery ([1]; microarray, myocardial samples, JPH203 treated vs sham mice): attenuates the downregulation
- attenuation of the increase in HW/TL ratio (heart hypertrophy; 5 weeks of aortic stenosis, P<0.001): 33%
- attenuation of the increase in MyH7/MyH6 ratio (heart hypertrophy; RT-PCR, P<0.001): 44%
- attenuation of the increase in BNP expression (heart hypertrophy; RT-PCR, P=0.001): 65%
- reduction of posterior wall thickness (heart hypertrophy; echocardiography, diastole, P=0.006): 28%
- reduction of anterior wall thickness (heart hypertrophy; echocardiography, diastole, P=0.026): 30%
- attenuation of the development of pulmonary oedema (water content in lungs) ([2]; P<0.001): 56%
- attenuation of cardiac dysfunction (reduction in ejection fraction) ([2]; P=0.030): 38%
- reduction of the diastolic volume (LVEDV) ([2]; echocardiography, P=0.017): 60%
- reduction of the systolic volume (LVESV) ([2]; echocardiography, P=0.021): 51%
- increase in the ratio between the plasma and myocardial content of 13C6,15N-leucine (leucine uptake) (myocardial BCAA content; [3]): prevented these alterations
- reduction in the levels of the 13C6,15N-leucine metabolite 13C-HMG (myocardial BCAA content; [3]): prevented these alterations
- reduction in the levels of the 13C6,15N-leucine metabolite 13C-isovaleric acid (myocardial BCAA content; [3]): prevented these alterations
- increase in the myocardial content of BCAA (valine, leucine and isoleucine) (myocardial BCAA content; LC-MS/MS, heart extracts after 2 weeks of TAC surgery, chronic administration 12.5 mg/kg/day ip): significantly attenuated
- reduced interstitial collagen deposition (interstitial collagen; Picrosirius Red stained heart sections, P<0.001): 57%
- attenuation in the expression of collagen III (interstitial collagen; RT-PCR, myocardial homogenates after two weeks of TAC surgery, P=0.002): 58%
- attenuation in the expression of collagen I (interstitial collagen; RT-PCR, myocardial homogenates after two weeks of TAC surgery, P=0.003): 56%
